Patent US12611387B2, “Compound and composition for inducing neuroprotection” (REST THERAPEUTICS, priority 2020, dated 2026)

Legend:
[1] = system: Aβ25-35 oligomer-intoxicated mice; experiment: Hamlet test, symptomatic treatment; format: in vivo, C57Bl/6j mice; conditions: 0.3 mg/Kg, symptomatic design
Experimental: (§1) The test compounds were tested for their ability to decrease the cognitive symptoms of Aβ25-35 oligomer-induced neurodegeneration, i.e. their ability to provide symptomatic anti-amnestic treatment (FIGS. 1A and 1B). In brief, to test the symptomatic effect of the test compounds, they were administered 8 days after the icy injection of the Aβ25-35 oligomers, 30 minutes before the YMT and PAT memory tests were conducted or 30 minutes before the test, but after the training session, in the case of the MWT or ORT (FIG. 1A). […]
The Hamlet Test® device, with a diameter of 1.2 m, comprises a central square (the agora) and streets that radiate out therefrom and lead to functionalised compartments or houses that allow a physiological function to be met or that enrich the environment. The walls and streets of the hamlet were made of infrared-transparent PVC, the test room was uniformly lit (200 Lux), infrared diodes were placed under the floor of the hamlet and an infrared camera recorded the behaviour of the animals. […]
This test was described by Crouzier et al. (2018 a and b). […] The exploratory behaviour was recorded alongside the time taken to find the Drink house and the number of errors made (number of entries into a street not leading to the Drink house). […] A disorientation index (DI) was calculated for each variable (time to find the drink house, number of errors): […]

[2] = system: Aβ25-35 oligomer-intoxicated mice; experiment: Morris water maze, symptomatic treatment; format: in vivo; conditions: symptomatic design (not shown)
Experimental: as §1, with “1A). The Hamlet Test® (FIG. 1B) involves a 2-week training session (4 hr/day) followed by a test (max. 10 min) under water deprivation conditions and under normal conditions; the Aβ25-35 peptide is injected after this first test.” for “1A).”
This test is used to assess long-term spatial reference memory. […] The animals' swimming behaviour was recorded (Videotrack® software, Viewpoint), and the trajectories, latencies and distances covered were measured. […] Median latency (time taken to find the platform) was calculated for each training day and expressed for the group as the mean latency±standard deviation. […] Each mouse was left in the water for 60 seconds and its swimming behaviour was recorded. The time spent in the north-eastern quadrant, which originally contained the platform (T), was measured and compared to the average time spent in the other quadrants (o).

With `NC12CC3CC(C1)CC(CCF)(C3)C2` [FENM, 3-(2-fluoroethyl)adamantan-1-amine] the “disorientation index calculated for errors” value [1] was “reduced to the level of those of the untreated, non-intoxicated mice”, the “disorientation index calculated for latency” value [1] was “reduced to the level of those of the untreated, non-intoxicated mice” and the “anti-amnestic effect in Morris water maze” value [2] was “confirmed”.
